In patent US9062038B2, “Heteroaryls and uses thereof” (Millennium Pharmaceuticals, Inc., priority 2010, dated 2015) one finds IC50 data, which are given here for two compounds.

pIC50: −log10 of the molar value.

Experiment [1] concerns the target T1, PI3K beta (Homo sapiens, UniProt P42338).
T1 construct: His (N); host or cells: SF9 insect cells (baculovirus)
Put plainly: Human PI3K beta enzyme assay (HTRF, procedure as for PI3K alpha). It counts as biochemical. From the text: (§1) The catalytic subunits of PI3Ks are cloned into either pDEST8(p110 alpha) or pDEST10(p110beta, p110delta, and p110gamma) as N-terminal His tagged fusion proteins using the Gateway system (Invitrogen, catalog#11804-010 for pDEST8 and 11806-015 for pDEST10). The sequences are verified before recombinant protein expression using the Baculovirus Expression System with Gateway® Technology. The accession numbers for the subunits are as follows: • p110 alpha (GB: U79143) • p110beta (GB: S67334) • p110delta (GB: U86453) • p110gamma (GB: X83368)
(§2) The regulatory subunits of PI3Ks are cloned into pDEST8 as un-tagged protein using the Gateway system (Catalog#11804-010). […]
0.5 uL compounds in DMSO are added to wells of a 384 well microtitre plate (Corning 3575). […] Then 5 ul PI3K stop mix (50 mM Hepes, 5 mM DTT, 150 mM NaCl, 0.01% Tween-20, 15 mM EDTA and 25 nM biotin-PI(3,4,5)P3 (Echelon) is added to quench the reaction followed immediately by addition of 5 ul HTRF detection mix (50 mM Hepes, 5 mM DTT, 150 mM NaCl, 0.01% Tween-20, 40 mM KF, 10 nM GST:GRP-1 PH domain (Millennium Protein Sciences Group), 15 nM Streptavidin-XL (CisBio) and 0.375 nM anti-GST antibody (CisBio) at pH 7.00). The plates are then incubated for 1 hour at room temperature with shaking and then read on a BMG PheraStar Plus reader. […]

In experiment [2] the target is T2, PI3Kalpha (Homo sapiens, UniProt P42336).
T2 construct: His (N); host or cells: SF9 insect cells (baculovirus)
Nature of the experiment: Human PI3Kα enzyme assay (HTRF). Format: biochemical.
Text: as §1, §2
0.5 uL compounds in DMSO are added to wells of a 384 well microtitre plate (Corning 3575). […] Then 5 ul PI3K stop mix (50 mM Hepes, 5 mM DTT, 150 mM NaCl, 0.01% Tween-20, 15 mM EDTA and 25 nM biotin-PI(3,4,5)P3 (Echelon) is added to quench the reaction followed immediately by addition of 5 ul HTRF detection mix (50 mM Hepes, 5 mM DTT, 150 mM NaCl, 0.01% Tween-20, 40 mM KF, 10 nM GST:GRP-1 PH domain (Millennium Protein Sciences Group), 15 nM Streptavidin-XL (CisBio) and 0.375 nM anti-GST antibody (CisBio) at pH 7.00). The plates are then incubated for 1 hour at room temperature with shaking and then read on a BMG PheraStar Plus reader.

T1 sequence (P42338 whole entry): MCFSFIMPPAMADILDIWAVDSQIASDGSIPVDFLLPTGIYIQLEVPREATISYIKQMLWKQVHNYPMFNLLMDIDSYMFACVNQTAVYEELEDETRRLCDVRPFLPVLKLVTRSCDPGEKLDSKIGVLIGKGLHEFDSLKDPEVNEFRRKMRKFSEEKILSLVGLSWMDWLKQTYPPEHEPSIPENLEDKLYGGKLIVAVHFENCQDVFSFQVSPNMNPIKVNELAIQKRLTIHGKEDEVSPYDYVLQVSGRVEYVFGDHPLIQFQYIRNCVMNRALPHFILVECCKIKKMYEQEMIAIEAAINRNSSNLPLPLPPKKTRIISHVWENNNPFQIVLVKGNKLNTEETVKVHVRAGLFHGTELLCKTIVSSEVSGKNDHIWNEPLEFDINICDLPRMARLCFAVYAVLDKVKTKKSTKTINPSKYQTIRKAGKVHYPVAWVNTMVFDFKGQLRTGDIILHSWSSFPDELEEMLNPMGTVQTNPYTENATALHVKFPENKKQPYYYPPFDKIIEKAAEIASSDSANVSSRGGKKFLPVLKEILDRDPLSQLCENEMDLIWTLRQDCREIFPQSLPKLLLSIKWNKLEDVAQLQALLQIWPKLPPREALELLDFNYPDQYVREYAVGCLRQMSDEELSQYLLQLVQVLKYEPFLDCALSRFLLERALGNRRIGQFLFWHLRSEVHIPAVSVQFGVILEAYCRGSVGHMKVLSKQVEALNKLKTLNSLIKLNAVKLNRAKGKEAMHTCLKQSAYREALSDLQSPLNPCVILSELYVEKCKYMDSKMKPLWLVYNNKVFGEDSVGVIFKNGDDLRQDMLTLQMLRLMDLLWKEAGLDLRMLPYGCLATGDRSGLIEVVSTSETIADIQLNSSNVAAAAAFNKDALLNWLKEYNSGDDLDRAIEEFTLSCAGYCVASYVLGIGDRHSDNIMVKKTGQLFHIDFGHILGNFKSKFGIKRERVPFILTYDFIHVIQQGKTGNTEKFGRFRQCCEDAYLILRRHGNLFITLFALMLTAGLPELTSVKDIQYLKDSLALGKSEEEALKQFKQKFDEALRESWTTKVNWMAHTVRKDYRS
T1 sequence (P27986 whole entry partner): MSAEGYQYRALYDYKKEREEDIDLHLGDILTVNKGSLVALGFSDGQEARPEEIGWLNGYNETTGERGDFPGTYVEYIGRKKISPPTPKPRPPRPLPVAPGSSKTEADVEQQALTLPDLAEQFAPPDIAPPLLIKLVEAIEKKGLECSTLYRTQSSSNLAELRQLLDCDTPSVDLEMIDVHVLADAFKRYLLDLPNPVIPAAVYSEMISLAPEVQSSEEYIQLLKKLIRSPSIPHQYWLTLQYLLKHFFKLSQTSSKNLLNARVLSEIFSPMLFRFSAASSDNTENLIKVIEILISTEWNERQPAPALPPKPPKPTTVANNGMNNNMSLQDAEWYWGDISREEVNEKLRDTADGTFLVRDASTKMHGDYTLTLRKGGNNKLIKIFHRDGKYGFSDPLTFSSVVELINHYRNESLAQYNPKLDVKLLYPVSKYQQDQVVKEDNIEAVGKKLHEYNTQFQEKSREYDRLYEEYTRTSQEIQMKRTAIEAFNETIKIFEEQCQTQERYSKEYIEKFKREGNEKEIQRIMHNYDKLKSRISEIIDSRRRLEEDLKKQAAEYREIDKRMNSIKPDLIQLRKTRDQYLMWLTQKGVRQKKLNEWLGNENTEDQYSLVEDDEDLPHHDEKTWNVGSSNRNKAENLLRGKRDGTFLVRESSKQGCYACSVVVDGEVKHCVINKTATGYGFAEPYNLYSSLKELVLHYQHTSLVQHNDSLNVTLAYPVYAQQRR
T2 sequence (P42336 whole entry): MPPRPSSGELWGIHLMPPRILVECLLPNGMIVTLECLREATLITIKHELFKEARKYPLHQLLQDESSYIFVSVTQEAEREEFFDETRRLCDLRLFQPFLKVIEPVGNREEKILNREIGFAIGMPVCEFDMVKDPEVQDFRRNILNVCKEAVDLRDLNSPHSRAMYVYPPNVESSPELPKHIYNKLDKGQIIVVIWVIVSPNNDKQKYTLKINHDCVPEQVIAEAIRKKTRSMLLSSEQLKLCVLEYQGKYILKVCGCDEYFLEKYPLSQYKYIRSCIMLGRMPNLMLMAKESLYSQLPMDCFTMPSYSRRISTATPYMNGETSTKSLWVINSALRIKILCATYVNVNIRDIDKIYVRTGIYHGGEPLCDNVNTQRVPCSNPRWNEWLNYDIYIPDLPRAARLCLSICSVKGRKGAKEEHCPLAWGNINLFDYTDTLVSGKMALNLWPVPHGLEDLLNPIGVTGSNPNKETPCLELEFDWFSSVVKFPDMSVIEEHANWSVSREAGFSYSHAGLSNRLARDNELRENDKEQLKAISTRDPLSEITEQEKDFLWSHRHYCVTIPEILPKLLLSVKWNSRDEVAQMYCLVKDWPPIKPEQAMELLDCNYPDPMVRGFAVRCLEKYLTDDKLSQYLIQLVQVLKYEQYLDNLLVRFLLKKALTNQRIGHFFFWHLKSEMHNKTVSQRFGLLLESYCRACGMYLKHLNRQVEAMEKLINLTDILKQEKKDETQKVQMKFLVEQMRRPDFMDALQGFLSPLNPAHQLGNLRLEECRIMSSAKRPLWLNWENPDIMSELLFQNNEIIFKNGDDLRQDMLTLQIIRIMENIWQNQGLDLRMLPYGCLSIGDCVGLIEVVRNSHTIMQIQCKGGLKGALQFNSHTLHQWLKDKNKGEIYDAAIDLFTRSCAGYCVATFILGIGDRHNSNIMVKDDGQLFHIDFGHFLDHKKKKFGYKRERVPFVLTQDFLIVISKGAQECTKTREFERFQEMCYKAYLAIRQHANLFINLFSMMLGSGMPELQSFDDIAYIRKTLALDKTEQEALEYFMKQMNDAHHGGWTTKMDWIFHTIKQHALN
T2 sequence (P27986 whole entry partner): as the sequence (P27986 whole entry partner) above

Take `Clc1ccc(Cc2oc(-c3ccncc3)nc2-c2nnc[nH]2)cc1` [Compound 2, 4-[5-(4-chlorobenzyl)-4-(4H-1,2,4-triazol-3-yl)-1,3-oxazol-2-yl]pyridine]: the negative logarithm of the IC50 (pIC50) in experiment [1] was 6.00 to 7.00; in experiment [2] it was below 6.00.
For `NC(=O)c1nc(-c2ccncc2)oc1Cc1ccc(Cl)cc1` [Compound 1, 5-(4-chlorobenzyl)-2-pyridin-4-yl-1,3-oxazole-4-carboxamide] the same measures were 6.00 to 7.00 and below 6.00.
